Reference: patent US7754718B2 (priority 2004, dated 2010)
Where two headings read alike, the source gives them in different places.

Assays:
HSV-1 = assay: In vitro antiviral assay for HSV-1; assay type: cell-based, Herpes Simplex Virus 1; settings: Human alphaherpesvirus 1, read-out: Antiviral Activities (EC50, μM) HSV-1
Summary of the method: (§1)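 Performed according to previously reported procedures for each virus; no further conditions are given for the HSV-2, CMV, HIV or EBV assays.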

[1] = Cell cytotoxicity assay on MT-2 cells; assay type: cell-based; settings: human, read-out: Cytotoxity (ID50, μM) MT-2
Summary of the method: (§2)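 MT-2 and CEM cytotoxicity determined per previously reported procedures. HepG2 cells seeded at 10^4 cells/ml in MEME + 10% FBS, compound added on day 2 for 3 further days at 37° C. Viable layer stained with methylene blue, solubilized in 1% sarcosyl, A595 read.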

HIV = assay: In vitro antiviral assay for HIV; assay type: cell-based, human immunodeficiency virus; settings: Human immunodeficiency virus 1, read-out: Antiviral Activities (EC50, μM) HIV, in vitro; (T) after a value means toxic
Summary of the method: as §1

[2] = test system: HBV 3.5 kb, 2.4/2.1 kb transcripts; assay: HBV RNA in HepG2.2.15 cells, Northern blot hybridization; assay type: cell-based, Hepatitis B virus; settings: for EC50: Hepatitis B virus, 144 h, read-out: EC50 for the 3.5 kb transcript
Experimental: (§3) Southern blot hybridization was used to measure the effects of compounds on HBV DNA. Total DNA from cells was extracted using Dneasy Tissue kit (Qiagen Inc. Valencia, Calif.) and separated on a 0.8% agarose gel. Separated DNA was transferred to a Hybond-N+membrane (Amersham Pharmacia Biotech Inc. Piscataway, N.J.). Inhibition of viral DNA replication was assessed by comparison of the replicative HBV DNA from drug-treated versus untreated cultures using hybridization of the membrane with a [α-^32P] dCTP labeled whole HBV DNA probe followed by autoradiography. Quantitative densitometry was performed on a Molecular Dynamics Densitometer (Amersham Pharmacia Biotech Inc. Piscataway, N.J.) using ImageQuaNT image analysis software. The integrated HBV genome was used as the internal control to normalize the amount of DNA loaded. Northern blot hybridization was used to measure the effects of the compounds on HBV RNA. Total intracellular RNA was extracted from cells using Rneasy kit (Qiagen Inc. Valencia, Calif.). RNA was separated in a 1.2% formaldehyde agarose gel and transferred to a Hybond-N+ membrane (Amersham Pharmacia Biotech Inc. Piscataway, N.J.). The membrane was hybridized with the same probe mentioned above at 65° C. followed by autoradiography. GAPDH RNA level was used as an internal control to normalize the amount of RNA loaded. The decrease of HBV core protein expression was assessed by western blot. A cellular crude extract of […] cells was separated on a 12% SDS-PAGE gel and transferred onto a nitrocellulose membrane (Bio-rad Laboratories, Hercules, Calif.). Anti-HBV core antibody (DAKO Corp. Carpinteria, Calif.) and anti rabbit IgG secondary antibody (Sigma. St. Louis, Mo.) were added. Actin protein level was used as the internal control.
Since helioxanthin and its derivatives are a unique class of chemical with anti-HBV activity, the mechanism of HBV inhibition was examined by first assessing their impact on HBV mRNA. The HepG2.2.15 cells treated with these two drugs for 6 days, then a Northern blot analysis on the total cellular RNA was performed with a HBV specific [α-^32P] dCTP labeled probe. […] Lamivudine had no effect on HBV RNA level.

HSV-2 = assay: In vitro antiviral assay for HSV-2; assay type: cell-based, Herpes Simplex Virus 2; settings: Human alphaherpesvirus 2, read-out: Antiviral Activities (EC50, μM) HSV-2
Summary of the method: as §1

HBV core protein = HBV core protein expression in HepG2.2.15 cells, Western blot; assay type: cell-based, Hepatitis B virus; settings: 6 days
Experimental: as §3
Since 3.5 kb HBV transcript was decreased after drug treatment, it was anticipated that this class of compounds would also affect viral protein expression. HepG2.2.15 cells were treated with helioxanthin and 22 for 6 days. […]

HCV = assay: Anti-HCV activity in Huh-Luc/neo cell line, luciferase activity after 3-day treatment; assay type: cell-based, Hepatitis C virus; settings: Hepatitis C virus, 72 h; at 3 μM, Huh-Luc/neo cells, 3 days; read-out: HCV percent of inhibition
CMV = assay: In vitro antiviral assay for CMV; assay type: cell-based, cytomegalovirus; settings: Human betaherpesvirus 5, read-out: Antiviral Activities (EC50, μM) CMV
Experimental: The antiviral assays for HBV, (Doong et al., 1991, Proc. Natl. Acad. Sci. U.S.A. 88:8495-8499) HSV-1, (Bastow et al., 1983, Antimicrob. Agents Chemother. 23: 914-917) HSV-2, (Bastow et al., 1983, Antimicrob. Agents Chemother. 23:914-917) EBV, (Yao et al., 1993, Antimicrob. Agents Chemother. 37:1420-1425), CMV (Andreoni et al., 2002, J. Med. Virol. 67:33-40) and HIV (Mellors et al., 1992, Mol. Pharmacol. 41: 446-451) were performed according to the previously reported procedures. Anti-HCV activities were tested in Huh-Luc/neo cell line. Cells were seeded into 48-well plates and grown until confluent. Different concentrations of drugs were added into media (DMEM, 10% dFBS) and incubated for 3 days. At the end of 3-day treatment, medium were removed and 50 μl of Passive lysis buffer (Promega) were added. Cell lysate was shaken at room temperature for 15 min. 30 μl/well of cell lysate was transferred to another 96-well plate, 100 μl/well of luciferase activity assay substrate was added into plate and read by a luminometer (Amersham) immediately.

HBV = assay: In vitro antiviral assay for HBV (Table 1); assay type: cell-based, Hepatitis B virus; settings: Hepatitis B virus, read-out: Antiviral Activities (EC50, μM) HBV
[3] = Cell cytotoxicity assay on CEM cells; assay type: cell-based; settings: human, read-out: Cytotoxity (ID50, μM) CEM
Summary of the method: as §2

CEM cells = assay: Cell cytotoxicity assay on CEM cells; assay type: cell-based; settings: Homo sapiens, CCRF-CEM, concentration that inhibited 50% of cell growth, read-out: IC50 (μM) CEM
Summary of the method: as §2

[4] = HepG2.2.15 cells, 6 days, Northern blot

Row | Compound | EC50 (HSV-1) [µM] | IC50 [1] [µM] | EC50 (HIV) [µM] | effect on HBV 3.5 kb, 2.4/2.1 kb transcripts (HBV RNA level) ([2]; HepG2.2.15 cells, 6 days, Northern blot, listed as helioxanthin) | EC50 [2, 4] [nM] | EC50 (HSV-2) [µM] | effect on HBV core protein expression (HBV core protein; listed as helioxanthin) | inhibition at 3 µM (HCV) [%] | EC50 (CMV) [µM] | EC50 (HBV) [µM] | IC50 [3] [µM] | IC50 (CEM cells) [µM] | effect on HBV 3.5 kb, 2.4/2.1 kb transcripts (HBV RNA level) [2] | effect on HBV core protein expression (HBV core protein) | effect on HBV 3.5 kb, 2.4/2.1 kb transcripts (HBV RNA level) [2, 4] | melting point
1 | O=C1OCc2c1cc1ccc3c(c1c2-c1ccc2c(c1)OCO2)OCO3 [Compound 2, 10-Benzo[1,3]dioxol-5-yl-9H-furo[3′,4′:6,7]naphtho[1,2-d][1,3]dioxol-7-one, reference compound] | 2 | 2.5 | > 2.5 | decreased 3.5 kb, 2.4/2.1 kb HBV transcripts in a dose-dependent manner | 90 | 35 | decreased in a dose-dependent manner | 64 | 7.3 | 1 | 31 | 32 | – | – | – | –
2 | Nc1ccn([C@@H]2CS[C@H](CO)O2)c(=O)n1 [Compound 3TC, (−)-(2R,5S)-1-[2-(hydroxymethyl)oxathiolan-5-yl]cytosine] | – | – | – | – | – | – | – | – | – | 0.02 | – | > 100 | no effect | no effect | – | –
3 | COc1ccc(-c2c3c(cc4ccc5c(c24)OCO5)C(=O)NC3)cc1OC [Compound 22, 10-(3,4-Dimethoxy-phenyl)-8,9-dihydro-1,3-dioxa-8-aza-dicyclopenta[a,g]naphthalen-7-one] | 0.6 | 16 | > 16 | – | 1000 | 0.5 | – | 80 | – | 0.9 | 5 | 3.6 ± 1.2 | – | decreased in a dose-dependent manner | decreased 3.5 kb, 2.4/2.1 kb HBV transcripts in a dose-dependent manner | 258 °C (dec.)
